Source: publication PMC7095208 (Nature, 2014)

Assays:
RAVV = conditions: mouse, in vivo
EBOV = conditions: mouse, in vivo

Nc1ncnc2c([C@@H]3N[C@H](CO)[C@@H](O)[C@H]3O)c[nH]c12 [BCX4430, (2S,3S,4R,5R)-2-(4-amino-5H-pyrrolo[3,2-d]pyrimidin-7-yl)-5-(hydroxymethyl)pyrrolidine-3,4-diol]
protection (RAVV): 75–100%
protection (survival vs vehicle) (RAVV): significant protection
protection against lethal EBOV challenge (EBOV): protected
